# Key:
# Format in all cases: cell-based
# OR5A2_variant 1 = biological target: T1, OR5A2_variant 1 (Homo sapiens, UniProt Q8NGI9); assay: Luciferase reporter concentration-response analysis on OR5A2_variant 1; details: CRE-luciferase; semi-logarithmic serial dilutions; empty vector pEFIBRHO as control
# T1 construct: expressed in transfected cells; host or cells: HEK293T-RTP1A1/RTP2
# T1 sequence (Q8NGI9 1-324): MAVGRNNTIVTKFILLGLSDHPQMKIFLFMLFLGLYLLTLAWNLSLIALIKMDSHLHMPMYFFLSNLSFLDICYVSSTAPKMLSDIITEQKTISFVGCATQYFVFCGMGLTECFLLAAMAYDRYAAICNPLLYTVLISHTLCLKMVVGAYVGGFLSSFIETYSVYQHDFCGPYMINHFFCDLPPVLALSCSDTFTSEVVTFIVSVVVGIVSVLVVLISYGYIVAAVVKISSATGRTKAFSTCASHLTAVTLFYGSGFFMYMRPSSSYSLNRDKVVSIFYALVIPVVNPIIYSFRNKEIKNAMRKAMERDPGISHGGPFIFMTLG
# Protocol: (§1) HEK293T-RTP1A1/RTP2 cells were maintained in minimal essential medium (EMEM, Lonza) containing 10% fetal bovine serum (M10). These cells were generated by transfecting HEK293T with an expression vector containing the sequences of the chaperone proteins RTP1A1 and RTP2 and a resistance gene to puromycin, using Lipofectamine 2000.
# (§2) Odorant molecules were diluted at a concentration of 1 mole/liter (M) into dimethyl sulfoxide (DMSO) to generate stock solutions.
# (§3) For concentration-response analysis, serial dilutions of the tested molecules were prepared from stock solutions in EMEM plated into 96-well plates.
# (§4) For the initial deorphanisation screening and dose-response analysis, a Luciferase-based gene reporter assay (Promega, Leiden, The Nederlands) was used. Briefly, cells were platted on Poly-D-lysine-coated 96-well and transfected with a plasmid containing the CRE-luciferase and a plasmid containing the olfactory receptor. Sixteen hours after transfection, the culture medium was replaced by serum-free EMEM containing the tested compounds at a determined concentration. After four hours of incubation at 37° C. degree, cells were lysed and processed for luminescence measurement. Luminescene emission was recorded. Results were expressed as luciferase activity (Relative […] Unit (RLU)) or as percentage of the response induced by 10 μM of the adenylate cyclase activator Forskolin. An empty plasmid is used as negative control.
# (§5) 35 musk compounds from the four structurally different chemical groups previously described were tested in concentration-response analyses (Table 2). In each experiment, an empty vector was used as negative control (pEFIBRHO). […] Full results including the calculated EC50 are given in Table 2; “non active” represent negative experiments, no activation after testing.
# OR5A1 = biological target: T2, OR5A1 (Homo sapiens, UniProt Q8NGJ0); assay: Luciferase reporter concentration-response analysis on OR5A1; details: CRE-luciferase; empty vector pEFIBRHO as control
# T2 construct: expressed in transfected cells; host or cells: HEK293T-RTP1A1/RTP2
# T2 sequence (Q8NGJ0 1-315): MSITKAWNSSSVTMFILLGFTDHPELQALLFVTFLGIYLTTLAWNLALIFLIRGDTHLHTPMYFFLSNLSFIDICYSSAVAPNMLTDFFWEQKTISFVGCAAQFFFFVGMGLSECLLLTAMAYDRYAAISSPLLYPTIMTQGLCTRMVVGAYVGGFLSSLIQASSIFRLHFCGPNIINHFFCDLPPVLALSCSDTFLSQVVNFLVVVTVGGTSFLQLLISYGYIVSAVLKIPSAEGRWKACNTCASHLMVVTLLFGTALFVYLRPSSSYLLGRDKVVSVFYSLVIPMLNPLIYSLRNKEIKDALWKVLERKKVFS
# Protocol: as §1, with “2000. The recombinant cell population, used in these experiments, was selected by adding 10 μg/ml of puromycin into the culture medium and subsequently subcloned (WO 2014/191047 A1).” for “2000.”
# as §2, §3
# as §4, with “Briefly, cells were platted on Poly-D-lysine-coated 96-well and transfected with a plasmid containing the CRE-luciferase and a plasmid containing the olfactory receptor.” left out, “An empty plasmid is used as negative control.” left out
# OR5AN1 = biological target: T3, OR5AN1 (Homo sapiens, UniProt Q8NGI8, E89G); assay: Luciferase reporter concentration-response analysis on OR5AN1; details: CRE-luciferase; empty vector pEFIBRHO as control
# T3 construct: expressed in transfected cells; host or cells: HEK293T-RTP1A1/RTP2
# T3 sequence (Q8NGI8 1-311 E89G): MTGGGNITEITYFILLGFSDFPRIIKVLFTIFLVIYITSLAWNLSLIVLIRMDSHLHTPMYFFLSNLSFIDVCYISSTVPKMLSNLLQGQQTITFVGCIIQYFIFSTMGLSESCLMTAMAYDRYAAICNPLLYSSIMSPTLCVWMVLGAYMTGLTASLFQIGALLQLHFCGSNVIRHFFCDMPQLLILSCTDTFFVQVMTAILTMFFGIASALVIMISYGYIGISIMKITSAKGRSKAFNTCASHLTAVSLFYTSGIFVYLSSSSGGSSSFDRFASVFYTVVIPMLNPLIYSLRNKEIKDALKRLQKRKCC
# Protocol: as §1, with “2000. The recombinant cell population, used in these experiments, was selected by adding 10 μg/ml of puromycin into the culture medium and subsequently subcloned (WO 2014/191047 A1).” for “2000.”
# as §2, §3, §4
# In these analyses we also included ORs previously described as musk-specific receptors OR5AN1 (SEQ ID n° 7) (WO 2015/020158 A1, Shirasu et al. 2014 Neuron 81, 165-78, Sato-Akuhara N et al. 2016 J Neurosci. 36(16), 4482-91) and OR11A1 (SEQ ID n° 8) (WO 2016/201152 A1). […] Therefore, OR5A1 was included in the analyses. 35 musk compounds from the four structurally different chemical groups previously described were tested in concentration-response analyses (Table 2). In each experiment, an empty vector was used as negative control (pEFIBRHO). […] Full results including the calculated EC50 are given in Table 2; “non active” represent negative experiments, no activation after testing. […]
# OR11A1 = biological target: T4, OR11A1 (Homo sapiens, UniProt Q9GZK7); assay: Luciferase reporter concentration-response analysis on OR11A1; details: CRE-luciferase; empty vector pEFIBRHO as control
# T4 construct: expressed in transfected cells; host or cells: HEK293T-RTP1A1/RTP2
# T4 sequence (Q9GZK7 1-315): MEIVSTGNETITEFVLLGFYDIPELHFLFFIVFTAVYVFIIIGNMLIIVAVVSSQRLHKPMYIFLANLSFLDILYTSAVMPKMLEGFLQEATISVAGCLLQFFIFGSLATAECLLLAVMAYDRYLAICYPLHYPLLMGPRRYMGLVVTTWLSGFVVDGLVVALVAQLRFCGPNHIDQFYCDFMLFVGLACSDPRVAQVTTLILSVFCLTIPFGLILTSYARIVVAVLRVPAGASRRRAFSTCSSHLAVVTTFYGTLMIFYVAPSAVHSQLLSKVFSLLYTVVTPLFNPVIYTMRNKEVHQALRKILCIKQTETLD
# Protocol: as §1, §2, §3, §4, §5
# These compounds were tested in concentration-response analysis in luciferase assays, as described previously. In each experiment, an empty vector was used as negative control (pEFIBRHO).
# chimeric OR5A2_variant 1 = biological target: T5, chimeric OR5A2_variant 1 (Homo sapiens, UniProt Q8NGI9, F293L/H55R/I289L/M58T); assay: Luciferase reporter concentration-response analysis on chimeric OR5A2_variant 1; details: CRE-luciferase, empty vector pEFIBRHO as control
# T5 construct: expressed in transfected cells; host or cells: HEK293T-RTP1A1/RTP2
# T5 sequence (Q8NGI9 with tags, fused parts or gaps H55R/M58T/I289L/F293L): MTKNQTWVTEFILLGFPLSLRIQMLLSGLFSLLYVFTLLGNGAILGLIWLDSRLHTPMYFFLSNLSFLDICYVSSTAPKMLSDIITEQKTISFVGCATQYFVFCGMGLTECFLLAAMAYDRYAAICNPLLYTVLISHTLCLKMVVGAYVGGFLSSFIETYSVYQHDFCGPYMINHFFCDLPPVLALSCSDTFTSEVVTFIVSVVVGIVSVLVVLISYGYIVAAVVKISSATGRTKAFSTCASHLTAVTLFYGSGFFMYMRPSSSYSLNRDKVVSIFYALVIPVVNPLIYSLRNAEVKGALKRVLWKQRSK
# Protocol: as §1, §2, §3, §4
# To test if the amino acids substitution could impact the musk sensitivity, and specificity and to validate the Krautwurst's model, luciferase assays were performed as described previously after transfection of the chimeric OR5A2_variant 1. Cells were treated with semi-logarithmic serial dilutions of musk compounds from the four structurally different groups described earlier.
# In each experiment, an empty vector was used as negative control (pEFIBRHO).
smiles,measurement,setting,value
CC(=O)/C=C/C1=C(C)CCCC1(C)C [Beta-ionone],"activation of OR5A2 (OR5A2_variant 1), concentration-response",OR5A2_variant 1,stimulated neither
same,"activation of OR5A1, concentration-response",OR5A1,able to activate OR5A1 only
same,"activation of OR5AN1, concentration-response",OR5AN1,stimulated neither
same,"activation of OR11A1, concentration-response",OR11A1,able to activate OR5A1 only
same,"activation of chimeric OR5A2_variant 1, concentration-response",chimeric OR5A2_variant 1,not able to activate
same,"activation of chimeric OR5A2_variant 1, concentration-response",chimeric OR5A2_variant 1; listed as beta-ionone,not activated

# — US12461089B2, “Olfactory receptor involved in the perception of musk fragrance and the use thereof” (ChemoSensoryX Biosciences SA, priority 2017, dated 2025)
